Laboratory results from PubChem BioAssay AID330 (DTP/NCI, 2004).
Values joined by “and” are separate entries in the source; they are usually repeats but may differ in a detail not shown here. Equal values may be shown once. Toxic doses and inconclusive results are not listed.

System: P388 leukemia ip, CD2F1 mice, survival T/C
Experiment: NCI In Vivo Anticancer Drug Screen. Data for tumor model P388 Leukemia (intraperitoneal) in CD2F1 (CDF1) mice
Settings: endpoint: median survival time, higher = longer survival
Procedure, shortened: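 Mice carrying the transplanted tumor received test compound or vehicle. Survival was recorded in each group, and the value is the treated-group measurement divided by that of the vehicle-treated control group.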

[1] = dose: 200.0 mg/kg/injection, schedule: Q01DX005 (ip), vehicle: saline
[2] = dose: 100.0 mg/kg/injection, schedule: Q01DX009 (ip), vehicle: Klucel (hydroxypropylcellulose) (HPC)
[3] = dose: 200.0 mg/kg/injection, schedule: Q01DX009 (ip), vehicle: Klucel (hydroxypropylcellulose) (HPC)
[4] = dose: 50.0 mg/kg/injection, schedule: Q01DX005 (ip), vehicle: saline with Tween-80
[5] = dose: 100.0 mg/kg/injection, schedule: Q01DX005 (ip), vehicle: saline with Tween-80
[6] = dose: 200.0 mg/kg/injection, schedule: Q01DX005 (ip), vehicle: saline with Tween-80
[7] = dose: 6.25 mg/kg/injection, schedule: Q01DX005 (ip), vehicle: saline
[8] = dose: 12.5 mg/kg/injection, schedule: Q01DX005 (ip), vehicle: saline
[9] = dose: 25.0 mg/kg/injection, schedule: Q01DX005 (ip), vehicle: saline
[10] = dose: 50.0 mg/kg/injection, schedule: Q01DX009 (ip), vehicle: saline with Tween-80
[11] = dose: 100.0 mg/kg/injection, schedule: Q01DX009 (ip), vehicle: saline with Tween-80
[12] = dose: 200.0 mg/kg/injection, schedule: Q01DX009 (ip), vehicle: saline with Tween-80
[13] = dose: 50.0 mg/kg/injection, schedule: Q01DX009 (ip), vehicle: saline
[14] = dose: 100.0 mg/kg/injection, schedule: Q01DX009 (ip), vehicle: saline
[15] = dose: 200.0 mg/kg/injection, schedule: Q01DX009 (ip), vehicle: saline
[16] = dose: 6.25 mg/kg/injection, schedule: Q01DX009 (ip), vehicle: saline with Tween-80
[17] = dose: 12.5 mg/kg/injection, schedule: Q01DX009 (ip), vehicle: saline with Tween-80
[18] = dose: 60.0 mg/kg/injection, schedule: Q01DX005 (ip), vehicle: saline with Tween-80
[19] = dose: 120.0 mg/kg/injection, schedule: Q01DX005 (ip), vehicle: saline with Tween-80
[20] = dose: 240.0 mg/kg/injection, schedule: Q01DX005 (ip), vehicle: saline with Tween-80

With `C[N+](C)(C)c1ncnc2c1ncn2C1CC(O)C(CO)O1` (configuration not stated) the T/C (dose: 50.0 mg/kg/injection, schedule: Q01DX005 (ip), vehicle: saline) was 95 % of control, the T/C (dose: 100.0 mg/kg/injection, schedule: Q01DX005 (ip), vehicle: saline) was 98 % of control and the T/C [1] was 101 % of control.

For `O=S(=O)(Cc1ccccc1)C(c1ccccc1)S(=O)(=O)Cc1ccccc1`, the T/C (dose: 50.0 mg/kg/injection, schedule: Q01DX009 (ip), vehicle: Klucel (hydroxypropylcellulose) (HPC)) was 96 % of control, the T/C [2] was 91 % of control and the T/C [3] was 100 % of control.

In the case of `CC(C)C(O)(C(=O)OCC1=CC[N+]2(C)CCC(O)C12)C(C)O` (configuration not stated), the T/C (dose: 25.0 mg/kg/injection, schedule: Q01DX005 (ip), vehicle: water) is reported as 103 % of control, the T/C (dose: 50.0 mg/kg/injection, schedule: Q01DX005 (ip), vehicle: water) is reported as 108 % of control and the T/C (dose: 100.0 mg/kg/injection, schedule: Q01DX005 (ip), vehicle: water) is reported as 103 % of control. The T/C (dose: 200.0 mg/kg/injection, schedule: Q01DX005 (ip), vehicle: water) was 100 % of control.

With `CCOC(=O)C1(C)C(=O)CC2c3nc4ccccc4cc3CN2C1=O` (configuration not stated) the T/C [2] was 95 % of control, the T/C [3] was 95 % of control and the T/C (dose: 400.0 mg/kg/injection, schedule: Q01DX009 (ip), vehicle: Klucel (hydroxypropylcellulose) (HPC)) was 104 % of control.

With `CCN(CC)c1nc(Cl)nc(NC(C)C)n1` the T/C (dose: 100.0 mg/kg/injection, schedule: Q04DX003 (ip), vehicle: saline with Tween-80) was 100 % of control and the T/C (dose: 200.0 mg/kg/injection, schedule: Q04DX003 (ip), vehicle: saline with Tween-80) was 95 % of control.

In the case of `O=C1c2cccc3c([N+](=O)[O-])ccc(c23)C(=O)N1CCCN1CCOCC1`, the T/C [4] is reported as 114 % of control and the T/C [5] is reported as 116 % of control.

For `CCC1C(OC)=CC(CC)(CO)C=C1OC` (configuration not stated), the T/C [4] was 95 % of control, the T/C [5] was 95 % of control and the T/C [6] was 100 % of control.

`C1OC1CO[C@H]1CO[C@H]2[C@@H]1OC[C@@H]2OCC1CO1` (some centres not stated) was tested, and the T/C (dose: 600.0 mg/kg/injection, schedule: Q04DX003 (ip), vehicle: saline) was 172 % of control.

In the case of `CCCCCCCCn1c(C)nc2c(cnn2C)c1=O`, the T/C (dose: 50.0 mg/kg/injection, schedule: Q01DX005 (ip), vehicle: Klucel (hydroxypropylcellulose) (HPC)) is reported as 100 % of control, the T/C (dose: 100.0 mg/kg/injection, schedule: Q01DX005 (ip), vehicle: Klucel (hydroxypropylcellulose) (HPC)) is reported as 96 % of control and the T/C (dose: 200.0 mg/kg/injection, schedule: Q01DX005 (ip), vehicle: Klucel (hydroxypropylcellulose) (HPC)) is reported as 100 % of control.

`CN1C(=O)C(O)(C2=C3OCOC3=CC(=O)C2=O)c2ccccc21` (configuration not stated) was tested, and the T/C [7] was 105 % of control, the T/C [8] was 103 % of control and the T/C [9] was 102 % of control.

`CCCCCCCC[As](CCCCCCCC)SCC1OC(OC(C)=O)C(OC(C)=O)C(OC(C)=O)C1OC(C)=O` (configuration not stated) was tested, and the T/C [10] was 101 % of control, the T/C [11] was 96 % of control and the T/C [12] was 99 % of control.

For `COC(=O)CS(=O)(=O)CCCCS(=O)(=O)CC(=O)OC`, the T/C [13] was 99 % of control, the T/C [14] was 99 % of control and the T/C [15] was 103 % of control.

For `O=C1c2cccc(O)c2C(=O)c2c(OC3OC(CO)C(OC4OC(CO)C(O)C(O)C4O)C(O)C3O)cccc21` (configuration not stated), the T/C (dose: 12.5 mg/kg/injection, schedule: Q04DX003 (ip), vehicle: saline with Tween-80) was 100 % of control, the T/C (dose: 25.0 mg/kg/injection, schedule: Q04DX003 (ip), vehicle: saline with Tween-80) was 100 % of control and the T/C [13] was 104 % of control. For the same compound, the T/C (dose: 50.0 mg/kg/injection, schedule: Q04DX003 (ip), vehicle: saline with Tween-80) was 99 % of control, the T/C [14] was 107 % of control and the T/C [15] was 102 % of control.

With `Nc1nc(SCC(=O)O)[nH]c(=O)c1NS(=O)(=O)c1ccccc1` the T/C (dose: 60.0 mg/kg/injection, schedule: Q01DX005 (ip), vehicle: Klucel (hydroxypropylcellulose) (HPC)) was 108 % of control and the T/C (dose: 120.0 mg/kg/injection, schedule: Q01DX005 (ip), vehicle: Klucel (hydroxypropylcellulose) (HPC)) was 109 % of control.

In the case of `COc1cc2cc[n+]3c4ccc([N+](=O)[O-])cc4ccc3c2cc1OC`, the T/C [6] is reported as 89 % of control.

For `CN(O)C(=O)CNC(=O)OC(C)(C)C`, the T/C [4] was 100 % of control, the T/C [5] was 98 % of control and the T/C [6] was 100 % of control. For the same compound, the T/C (dose: 400.0 mg/kg/injection, schedule: Q01DX005 (ip), vehicle: saline with Tween-80) was 105 % of control.

In the case of `CC1(C)OCC(C2OC3OC(C)(C)OC3/C2=N/NC(=O)c2cc3cc(OCc4ccccc4)ccc3[nH]2)O1` (configuration not stated), the T/C [7] is reported as 93 % of control, the T/C [8] is reported as 93 % of control and the T/C [9] is reported as 88 % of control. The T/C [1] was 94 % of control.

In the case of `CC(C)C(=O)c1ccco1`, the T/C (dose: 3.13 mg/kg/injection, schedule: Q01DX009 (ip), vehicle: saline with Tween-80) is reported as 90 % of control, the T/C [16] is reported as 100 % of control and the T/C [17] is reported as 100 % of control.

In the case of `O=C(c1ccccc1)c1ccccc1NCC(O)COc1ccc(Cl)cc1` (configuration not stated), the T/C [18] is reported as 88 % of control and 96 % of control, the T/C [19] is reported as 100 % of control and the T/C [20] is reported as 99 % of control.

With `COC1/C=C/OC2(C)Oc3c(C)c(O)c4c(c3C2=O)C(=O)C(CO)=C(NC(=O)/C(C)=C\C=C\C(C)C(O)C(C)C(O)C(C)C(OC(C)=O)C1C)C4=O` (configuration not stated) the T/C [10] was 104 % of control, the T/C [11] was 99 % of control and the T/C [12] was 112 % of control.

With `CCC1(CC)NC(=O)[C@H](C)N1S(C)(=O)=O` the T/C [4] was 100 % of control, the T/C [5] was 96 % of control and the T/C [6] was 89 % of control.

With `OC(c1ccccc1)(C(F)(F)F)C(O)(c1ccccc1)C(F)(F)F` (configuration not stated) the T/C [10] was 99 % of control, the T/C [11] was 104 % of control and the T/C [12] was 87 % of control.

With `[O-][N+](=C1c2ccccc2-c2ccccc21)c1ccccc1` the T/C (dose: 50.0 mg/kg/injection, schedule: Q04DX003 (ip), vehicle: saline) was 109 % of control, the T/C (dose: 100.0 mg/kg/injection, schedule: Q04DX003 (ip), vehicle: saline) was 118 % of control and the T/C (dose: 200.0 mg/kg/injection, schedule: Q04DX003 (ip), vehicle: saline) was 95 % of control.

For `CC(C)SC(=S)Nc1ccc(Cl)c([N+](=O)[O-])c1`, the T/C [13] was 99 % of control, the T/C [14] was 93 % of control and the T/C [15] was 103 % of control.

With `Cn1c(=O)c2[nH]c(C(C)(C)O)nc2n(C)c1=O` the T/C [18] was 101 % of control, the T/C [19] was 104 % of control and the T/C [20] was 101 % of control.

In the case of `C(COCC1CO1)OCC1CO1` (configuration not stated), the T/C (dose: 12.5 mg/kg/injection, schedule: Q01DX009 (ip), vehicle: saline) is reported as 120 % of control and the T/C [13] is reported as 150 % of control.

In the case of `CN(/C=C/C=C/C=N/O)c1ccccc1`, the T/C (dose: 50.0 mg/kg/injection, schedule: Q01DX001 (ip), vehicle: Klucel (hydroxypropylcellulose) (HPC)) is reported as 104 % of control, the T/C (dose: 100.0 mg/kg/injection, schedule: Q01DX001 (ip), vehicle: Klucel (hydroxypropylcellulose) (HPC)) is reported as 100 % of control and the T/C (dose: 200.0 mg/kg/injection, schedule: Q01DX001 (ip), vehicle: Klucel (hydroxypropylcellulose) (HPC)) is reported as 99 % of control.

For `O=C1c2cccc3cccc(c23)C(=O)N1CCO`, the T/C [4] was 104 % of control, the T/C [5] was 96 % of control and the T/C [6] was 100 % of control.

With `CN(C)C1C(=O)C(C(N)=O)=C(O)C2(O)C(=O)C3=C(O)c4c(O)cccc4C(C)(O)C3C(O)C12.[Cl][Sb]([Cl])[Cl]` (configuration not stated) the T/C [4] was 113 % of control and the T/C [5] was 99 % of control.

For `Cc1ccc(C(C)(C)C[P+](C)(c2ccccc2)c2ccccc2)cc1`, the T/C (dose: 12.5 mg/kg/injection, schedule: Q01DX009 (ip), vehicle: Klucel (hydroxypropylcellulose) (HPC)) was 105 % of control and the T/C (dose: 25.0 mg/kg/injection, schedule: Q01DX009 (ip), vehicle: Klucel (hydroxypropylcellulose) (HPC)) was 103 % of control.

In the case of `CCCCCCCCCCCCCCCCSc1ccncc1NN=O`, the T/C (dose: 3.12 mg/kg/injection, schedule: Q01DX009 (ip), vehicle: saline with Tween-80) is reported as 99 % of control, the T/C [16] is reported as 106 % of control and the T/C [17] is reported as 101 % of control. The T/C (dose: 25.0 mg/kg/injection, schedule: Q01DX009 (ip), vehicle: saline with Tween-80) was 105 % of control, the T/C [10] was 99 % of control and 100 % of control and the T/C [11] was 113 % of control.
